Source: PubChem BioAssay AID1845207 (Molecular Pharmacology Branch, DTP, NCI, 2023)

Tested on: NCI-H1876 tumor spheroid viability
Experiment: Anticancer human tumor NCI-H1876 cell line growth inhibition;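 further: spheroids exposed to compounds for seven days before the viability read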;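 on viability, T/C: percent of DMSO vehicle control viability so 100% = vehicle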
Conditions: spheroids with HUVEC and MSC; for IC50: curve of first compound; for viability, T/C: stronger effect = lower value
Method in brief: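 Single agents and combinations were tested on spheroids built from tumor cells plus HUVEC and hMSC, at half-log dilutions starting at or near clinical Cmax, else 10 microM; final DMSO 0.25% (v/v).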

Cc1cc(C)c(CNC(=O)c2cc(-c3ccc(CN4CCOCC4)cc3)cc3c2cnn3C2CCCC2)c(=O)[nH]1 + Cn1nnc2c(C(N)=O)ncn2c1=O
IC50 (second compound 1 µM): 713 nM
IC50 (second compound 3.16 µM): 873 nM
IC50 (second compound 10 µM): 546 nM
IC50 (second compound 31.6 µM): 750 nM
IC50 (second compound 100 µM): 201 nM
viability, T/C (second compound 1 µM, first compound 0.0316 µM): 93.8%
viability, T/C (second compound 1 µM, first compound 0.1 µM): 79.2%
viability, T/C (second compound 1 µM, first compound 0.316 µM): 60.2%
viability, T/C (second compound 1 µM, first compound 1 µM): 44.8%
viability, T/C (second compound 1 µM, first compound 3.16 µM): 29.3%
viability, T/C (second compound 1 µM, first compound 10 µM): 9.14%
viability, T/C (second compound 3.16 µM, first compound 0.0316 µM): 85.7%
viability, T/C (second compound 3.16 µM, first compound 0.1 µM): 78.6%
viability, T/C (second compound 3.16 µM, first compound 0.316 µM): 64%
viability, T/C (second compound 3.16 µM, first compound 1 µM): 49.8%
viability, T/C (second compound 3.16 µM, first compound 3.16 µM): 27.2%
viability, T/C (second compound 3.16 µM, first compound 10 µM): 12.2%
viability, T/C (second compound 10 µM, first compound 0.0316 µM): 88.7%
viability, T/C (second compound 10 µM, first compound 0.1 µM): 58.5%
viability, T/C (second compound 10 µM, first compound 0.316 µM): 61.8%
viability, T/C (second compound 10 µM, first compound 1 µM): 46.8%
viability, T/C (second compound 10 µM, first compound 3.16 µM): 26.6%
viability, T/C (second compound 10 µM, first compound 10 µM): 13.3%
viability, T/C (second compound 31.6 µM, first compound 0.0316 µM): 53.8%
viability, T/C (second compound 31.6 µM, first compound 0.1 µM): 74.6%
viability, T/C (second compound 31.6 µM, first compound 0.316 µM): 59.3%
viability, T/C (second compound 31.6 µM, first compound 1 µM): 44.7%
viability, T/C (second compound 31.6 µM, first compound 3.16 µM): 26.3%
viability, T/C (second compound 31.6 µM, first compound 10 µM): 10.7%
viability, T/C (second compound 100 µM, first compound 0.0316 µM): 58.8%
viability, T/C (second compound 100 µM, first compound 0.1 µM): 52.3%
viability, T/C (second compound 100 µM, first compound 0.316 µM): 47%
viability, T/C (second compound 100 µM, first compound 1 µM): 39.8%
viability, T/C (second compound 100 µM, first compound 3.16 µM): 25.2%
viability, T/C (second compound 100 µM, first compound 10 µM): 8.6%

COc1ccc([C@@H](O)c2cc(-c3ncnc4cc(N5CCOCC5)ccc34)c(F)cc2Cl)nn1 + CC[C@@]1(O)C(=O)OCc2c1cc1n(c2=O)Cc2cc3c(CN(C)C)c(O)ccc3nc2-1
IC50 (second compound 0.003 µM): 1650 nM
IC50 (second compound 0.00949 µM): < 31.6 nM
IC50 (second compound 0.03 µM): < 31.6 nM
IC50 (second compound 0.0949 µM): < 31.6 nM
IC50 (second compound 0.3 µM): < 31.6 nM
viability, T/C (second compound 0.003 µM, first compound 0.0316 µM): 88.7%
viability, T/C (second compound 0.003 µM, first compound 0.1 µM): 83.7%
viability, T/C (second compound 0.003 µM, first compound 0.316 µM): 85.3%
viability, T/C (second compound 0.003 µM, first compound 1 µM): 67.1%
viability, T/C (second compound 0.003 µM, first compound 3.16 µM): 27.6%
viability, T/C (second compound 0.003 µM, first compound 10 µM): 10.9%
viability, T/C (second compound 0.00949 µM, first compound 0.0316 µM): 15.9%
viability, T/C (second compound 0.00949 µM, first compound 0.1 µM): 15.2%
viability, T/C (second compound 0.00949 µM, first compound 0.316 µM): 17.8%
viability, T/C (second compound 0.00949 µM, first compound 1 µM): 12.2%
viability, T/C (second compound 0.00949 µM, first compound 3.16 µM): 8.75%
viability, T/C (second compound 0.00949 µM, first compound 10 µM): 5.67%
viability, T/C (second compound 0.03 µM, first compound 0.0316 µM): 3.61%
viability, T/C (second compound 0.03 µM, first compound 0.1 µM): 6.14%
viability, T/C (second compound 0.03 µM, first compound 0.316 µM): 3.33%
viability, T/C (second compound 0.03 µM, first compound 1 µM): 3.01%
viability, T/C (second compound 0.03 µM, first compound 3.16 µM): 2.56%
viability, T/C (second compound 0.03 µM, first compound 10 µM): 2.82%
viability, T/C (second compound 0.0949 µM, first compound 0.0316 µM): 2.02%
viability, T/C (second compound 0.0949 µM, first compound 0.1 µM): 2.62%
viability, T/C (second compound 0.0949 µM, first compound 0.316 µM): 2.15%
viability, T/C (second compound 0.0949 µM, first compound 1 µM): 2.18%
viability, T/C (second compound 0.0949 µM, first compound 3.16 µM): 1.69%
viability, T/C (second compound 0.0949 µM, first compound 10 µM): 2.92%
viability, T/C (second compound 0.3 µM, first compound 0.0316 µM): 1.88%
viability, T/C (second compound 0.3 µM, first compound 0.1 µM): 1.98%
viability, T/C (second compound 0.3 µM, first compound 0.316 µM): 1.62%
viability, T/C (second compound 0.3 µM, first compound 1 µM): 1.27%
viability, T/C (second compound 0.3 µM, first compound 3.16 µM): 1.46%
viability, T/C (second compound 0.3 µM, first compound 10 µM): 1.93%
